Results reported in patent publication US20100298141A1, “SUBSTITUTED PYRIDINE N-OXIDE HERBICIDES” (E. I. DU PONT DE NEMOURS AND COMPANY, priority 2007, published 2010).

Key:
barnyardgrass = assay: Test A pre-/postemergence greenhouse test; type: in vivo, Echinochloa crus-galli; conditions: for Barnyardgrass plant response rating: 0 to 100 scale; for Plant response rating, Barnyardgrass: 0 to 100 scale where 0 is no effect and 100 is complete control
Method in brief: (§1)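 Planting was into mixed loam soil and sand; preemergence treatment followed as a directed soil spray. Concurrently, emerged plants (one- to two-leaf, 2–10 cm) received postemergence applications of identically formulated compound (non-phytotoxic solvent, surfactant). After approximately ten days under greenhouse conditions, injury was judged by eye against untreated plants.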

crabgrass [1] = assay: Test A pre-/postemergence greenhouse test; type: in vivo, Digitaria sanguinalis; conditions: for Crabgrass, Large plant response rating: 0 to 100 scale; for Plant response rating, Crabgrass, Large: 0 to 100 scale where 0 is no effect and 100 is complete control
Method in brief: as §1

wheat = assay: Test A pre-/postemergence greenhouse test; type: in vivo, Triticum aestivum; conditions: for Wheat plant response rating: 0 to 100 scale; for Plant response rating, Wheat: 0 to 100 scale where 0 is no effect and 100 is complete control
Method in brief: as §1

corn [2] = assay: Test A pre-/postemergence greenhouse test; type: in vivo, Zea mays; conditions: for Corn plant response rating: 0 to 100 scale; for Plant response rating, Corn: 0 to 100 scale where 0 is no effect and 100 is complete control
Method in brief: as §1

Italian ryegrass = assay: Test C pre-/postemergence test; type: in vivo, Lolium multiflorum
Method in brief: (§2)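 Seeds were planted and treated preemergence with test chemical in a non-phytotoxic solvent mixture containing surfactant. Postemergence applications of the same formulation went onto plants 2 to 18 cm tall (1- to 4-leaf stage). A dash marks no test result.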

Surinam grass = assay: Test C pre-/postemergence test; type: in vivo, Brachiaria decumbens
Method in brief: as §2

corn [3] = assay: Test C pre-/postemergence test; type: in vivo, Zea mays
Method in brief: as §2

crabgrass [4] = assay: Test C pre-/postemergence test; type: in vivo, Digitaria sanguinalis
Method in brief: as §2

giant foxtail = assay: Test C pre-/postemergence test; type: in vivo, Setaria faberii
Method in brief: as §2

Goosegrass = assay: Test C pre-/postemergence test; type: in vivo, Eleusin indica
Method in brief: as §2

johnsongrass = assay: Test C pre-/postemergence test; type: in vivo, Sorghum halepense
Method in brief: as §2

morningglory = assay: Test C pre-/postemergence test; type: in vivo, Ipomoea coccinea
Method in brief: as §2

eastern black nightshade = assay: Test C pre-/postemergence test; type: in vivo, Solanum ptycanthum
Method in brief: as §2

pigweed = assay: Test C pre-/postemergence test; type: in vivo, Amaranthus retroflexus
Method in brief: as §2

[5] = system: common (oilseed) sunflower; assay: Test C pre-/postemergence test; type: in vivo, Helianthus annuus
Method in brief: as §2

velvetleaf = assay: Test C pre-/postemergence test; type: in vivo, Abutilon theophrasti
Method in brief: as §2

umbrella sedge = assay: Test C flooded paddy test; type: in vivo, Cyperus difformis; conditions: Flood
Method in brief: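 Visual injury ratings against untreated controls, taken 13 to 15 days after compound was added to paddy water standing 3 cm above the soil.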

[6] = Postemergence, 125 g ai/ha, 0 is no effect, 100 is complete control
[7] = Postemergence, 500 g ai/ha, 0 is no effect, 100 is complete control
[8] = Preemergence, 125 g ai/ha, 0 no effect, 100 complete control
[9] = 31 g ai/ha, Preemergence, scale 0 to 100
[10] = 62 g ai/ha, preemergence, scale 0 (no effect) to 100 (complete control)
[11] = preemergence, 125 g ai/ha, scale 0 (no effect) to 100 (complete control)
[12] = 31 g ai/ha, scale 0 to 100 (0 no effect, 100 complete control)
[13] = 62 g ai/ha, scale 0 to 100, 0 no effect, 100 complete control, 13 to 15 days
[14] = 125 g ai/ha, scale 0 to 100, 0 no effect, 100 complete control, 13 to 15 days
[15] = 62 g ai/ha, Preemergence, scale 0 to 100
[16] = 125 g ai/ha, preemergence, scale 0 (no effect) to 100 (complete control)
[17] = preemergence, 250 g ai/ha, scale 0 (no effect) to 100 (complete control)
[18] = Preemergence, 31 g ai/ha, scale 0 to 100 (0 no effect, 100 complete control)

Cn1nc(C(F)(F)F)c(C[S+]([O-])c2cccc[n+]2[O-])c1Cl (stereo not drawn) [Compound 8]
0: Ryegrass, Italian plant response rating (Italian ryegrass; [9]) | Plant response rating, Sedge, Umbrella (umbrella sedge; [12]) | Plant response rating, Sedge, Umbrella (umbrella sedge; [13])
98: Plant response rating (0 to 100), Corn (corn [3]; Preemergence, 250 g ai/ha) | Foxtail, Giant plant response rating (giant foxtail; [10]) | Goosegrass plant response rating (Goosegrass; [9]) | Velvetleaf plant response rating (velvetleaf; [11])
30: Wheat plant response rating (wheat; [6]) | Sunflower plant response rating [5, 10]
90: Barnyardgrass plant response rating (barnyardgrass; [8]) | Crabgrass, Large plant response rating (crabgrass [1]; [7]) | Crabgrass, Large plant response rating (crabgrass [1]; [8]) | Crabgrass, Large plant response rating (crabgrass [4]; [9]) | Morningglory plant response rating (morningglory; [10])
20: Corn plant response rating (corn [2]; [8])
50: Corn plant response rating (corn [2]; [6]) | Ryegrass, Italian plant response rating (Italian ryegrass; [10])
100: Plant response rating, Barnyardgrass (barnyardgrass; Preemergence, 500 g ai/ha) | Plant response rating, Crabgrass, Large (crabgrass [1]; Preemergence, 500 g ai/ha) | Plant response rating (0 to 100), Surinam Grass (Surinam grass; Preemergence, 250 g ai/ha) | Surinam Grass plant response rating (Surinam grass; [11]) | Crabgrass, Large plant response rating (crabgrass [4]; [10]) | Plant response rating (0 to 100), Crabgrass, Large (crabgrass [4]; Preemergence, 250 g ai/ha) | Crabgrass, Large plant response rating (crabgrass [4]; [11]) | Plant response rating (0 to 100), Foxtail, Giant (giant foxtail; Preemergence, 250 g ai/ha) | Foxtail, Giant plant response rating (giant foxtail; [11]) | Goosegrass plant response rating (Goosegrass; [10]) | Plant response rating (0 to 100), Goosegrass (Goosegrass; Preemergence, 250 g ai/ha) | Goosegrass plant response rating (Goosegrass; [11]) | Plant response rating (0 to 100), Johnsongrass (johnsongrass; Preemergence, 250 g ai/ha) | Plant response rating (0 to 100), Morningglory (morningglory; Preemergence, 250 g ai/ha) | Morningglory plant response rating (morningglory; [11]) | Plant response rating (0 to 100), Nightshade (eastern black nightshade; Preemergence, 250 g ai/ha) | Nightshade plant response rating (eastern black nightshade; [11]) | Pigweed plant response rating (pigweed; [10]) | Plant response rating (0 to 100), Pigweed (pigweed; Preemergence, 250 g ai/ha) | Pigweed plant response rating (pigweed; [11]) | Plant response rating (0 to 100), Sunflower ([5]; Preemergence, 250 g ai/ha) | Plant response rating (0 to 100), Velvetleaf (velvetleaf; Preemergence, 250 g ai/ha) | Plant response rating, Sedge, Umbrella (umbrella sedge; 250 g ai/ha, scale 0 to 100 (0 no effect, 100 complete control))
80: Barnyardgrass plant response rating (barnyardgrass; [6]) | Barnyardgrass plant response rating (barnyardgrass; [7]) | Crabgrass, Large plant response rating (crabgrass [1]; [6]) | Corn plant response rating (corn [3]; [10]) | Johnsongrass plant response rating (johnsongrass; [9]) | Nightshade plant response rating (eastern black nightshade; [9])
5: Morningglory plant response rating (morningglory; [9])
70: Plant response rating, Wheat (wheat; Preemergence, 500 g ai/ha) | Plant response rating, Corn (corn [2]; Preemergence, 500 g ai/ha) | Ryegrass, Italian plant response rating (Italian ryegrass; [11])
95: Plant response rating (0 to 100), Ryegrass, Italian (Italian ryegrass; Preemergence, 250 g ai/ha) | Corn plant response rating (corn [3]; [11])
45: Velvetleaf plant response rating (velvetleaf; [10])
85: Surinam Grass plant response rating (Surinam grass; [10]) | Foxtail, Giant plant response rating (giant foxtail; [9]) | Johnsongrass plant response rating (johnsongrass; [10]) | Johnsongrass plant response rating (johnsongrass; [11]) | Nightshade plant response rating (eastern black nightshade; [10]) | Pigweed plant response rating (pigweed; [9]) | Plant response rating, Sedge, Umbrella (umbrella sedge; [14])
60: Wheat plant response rating (wheat; [7]) | Wheat plant response rating (wheat; [8]) | Corn plant response rating (corn [2]; [7]) | Corn plant response rating (corn [3]; [9]) | Sunflower plant response rating [5, 11]

Cn1nc(C(F)(F)F)c(C[S+]([O-])c2cc(F)cc[n+]2[O-])c1Cl (racemic) [Compound 42]
40: Wheat plant response rating (wheat; [6])
85: Ryegrass, Italian plant response rating (Italian ryegrass; [17]) | Surinam Grass plant response rating (Surinam grass; [16]) | Plant response rating, Goosegrass (Goosegrass; [18]) | Plant response rating, Sedge, Umbrella (umbrella sedge; [13])
98: Plant response rating, Foxtail, Giant (giant foxtail; [18]) | Johnsongrass plant response rating (johnsongrass; [15])
90: Crabgrass, Large plant response rating (crabgrass [1]; [7]) | Morningglory plant response rating (morningglory; [17]) | Plant response rating, Sedge, Umbrella (umbrella sedge; [14])
80: Barnyardgrass plant response rating (barnyardgrass; [7]) | Barnyardgrass plant response rating (barnyardgrass; [8]) | Crabgrass, Large plant response rating (crabgrass [1]; [6]) | Ryegrass, Italian plant response rating (Italian ryegrass; [16]) | Surinam Grass plant response rating (Surinam grass; [15]) | Corn plant response rating (corn [3]; [17]) | Nightshade plant response rating (eastern black nightshade; [15]) | Plant response rating, Nightshade (eastern black nightshade; [18]) | Sunflower plant response rating [5, 17] | Plant response rating, Sedge, Umbrella (umbrella sedge; [12])
100: Plant response rating, Barnyardgrass (barnyardgrass; Preemergence, 500 g ai/ha) | Plant response rating, Crabgrass, Large (crabgrass [1]; Preemergence, 500 g ai/ha) | Surinam Grass plant response rating (Surinam grass; [17]) | Crabgrass, Large plant response rating (crabgrass [4]; [15]) | Crabgrass, Large plant response rating (crabgrass [4]; [16]) | Crabgrass, Large plant response rating (crabgrass [4]; [17]) | Foxtail, Giant plant response rating (giant foxtail; [15]) | Foxtail, Giant plant response rating (giant foxtail; [16]) | Foxtail, Giant plant response rating (giant foxtail; [17]) | Goosegrass plant response rating (Goosegrass; [15]) | Goosegrass plant response rating (Goosegrass; [16]) | Goosegrass plant response rating (Goosegrass; [17]) | Johnsongrass plant response rating (johnsongrass; [16]) | Johnsongrass plant response rating (johnsongrass; [17]) | Nightshade plant response rating (eastern black nightshade; [16]) | Nightshade plant response rating (eastern black nightshade; [17]) | Pigweed plant response rating (pigweed; [15]) | Pigweed plant response rating (pigweed; [16]) | Plant response rating, Pigweed (pigweed; [18]) | Pigweed plant response rating (pigweed; [17]) | Velvetleaf plant response rating (velvetleaf; [17])
55: Ryegrass, Italian plant response rating (Italian ryegrass; [15]) | Plant response rating, Johnsongrass (johnsongrass; [18])
95: Plant response rating, Crabgrass, Large (crabgrass [4]; [18]) | Plant response rating, Sedge, Umbrella (umbrella sedge; 250 g ai/ha, scale 0 to 100, 0 no effect, 100 complete control, 13 to 15 days)
0: Corn plant response rating (corn [2]; [6]) | Corn plant response rating (corn [2]; [8]) | Plant response rating, Corn (corn [2]; Preemergence, 500 g ai/ha) | Plant response rating, Corn (corn [3]; [18]) | Plant response rating, Morningglory (morningglory; [18]) | Sunflower plant response rating [5, 15] | Plant response rating, Sunflower [5, 18] | Plant response rating, Velvetleaf (velvetleaf; [18])
70: Barnyardgrass plant response rating (barnyardgrass; [6]) | Crabgrass, Large plant response rating (crabgrass [1]; [8]) | Corn plant response rating (corn [2]; [7]) | Velvetleaf plant response rating (velvetleaf; [16])
50: Wheat plant response rating (wheat; [7]) | Morningglory plant response rating (morningglory; [15]) | Morningglory plant response rating (morningglory; [16])
20: Wheat plant response rating (wheat; [8])
60: Plant response rating, Wheat (wheat; Preemergence, 500 g ai/ha) | Plant response rating, Surinam Grass (Surinam grass; [18]) | Corn plant response rating (corn [3]; [16]) | Velvetleaf plant response rating (velvetleaf; [15])
25: Corn plant response rating (corn [3]; [15])
30: Sunflower plant response rating [5, 16]
